According to article PMC11083148, “Structure–Activity Relationship Studies on Highly Functionalized Pyrazole Hydrazones and Amides as Antiproliferative and Antioxidant Agents” (International Journal of Molecular Sciences, 2024):

What was measured:
[1] = tested on: A549; assay: MTT assay, antiproliferative activity; type: cell-based; details: Homo sapiens, 48h, read-out: Mean Growth Percentage
Procedure: (§1) Pyrazole acylhydrazones 10–13 and amides 14–22 were tested by MTT assay to evaluate their antiproliferative and cytotoxicity properties against a panel of eight tumor cell lines and normal fibroblasts.
(§2) All reagents were purchased from EuroClone, Milan, Italy). The following cell lines were used for MTT assays: SKOV-3 (ovarian adenocarcinoma, ATCC, Manassas, VA, USA); MCF-7 (breast adenocarcinoma, Biologic Bank and Cell Factory, IRCCS Policlinico San Martino, Genoa, Italy); Hep-G2 (hepatocellular carcinoma, ATCC, Manassas, VA, USA); SK-MEL28 (skin melanoma, Biologic Bank and Cell Factory, IRCCS Policlinico San Martino, Genoa, Italy), GM-6114 (embryonic human fibroblast, ATCC, Manassas, VA, USA); MDA-MB231 (breast adenocarcinoma, Biologic Bank and Cell Factory, IRCCS Policlinico San Martino, Genoa, Italy); HeLa (cervical adenocarcinoma, Biologic Bank and Cell Factory, IRCCS Policlinico San Martino, Genoa, Italy); SK-BR3 (breast andenocarcinoma, Biologic Bank and Cell Factory, IRCCS Policlinico San Martino, Genoa, Italy); A549 (lung carcinoma, Biologic Bank and Cell Factory, IRCCS Policlinico San Martino, Genoa, Italy); HUVEC (Human Umbilical Vein Endothelial Cells, ATCC, Manassas, VA, USA). All cell lines were grown in their medium with 10% FBS, 2 mM Glutamine, and 1% penstrep and incubated at 37 °C in 5% CO2 in a humidified environment. The cell lines were plated in 96-well plates at an adequate number to reach 80–90% confluence at the end of the assay. 16 h after cell plating, a 10 mM DMSO stock solution of the compounds was diluted in growth medium and added at a final working concentration of 10 μM. After 48h of incubation, a 2 mg/mL PBS solution of MTT (3-(4,5-dimethyl-2-thiazolyl)-2,5-diphenyl-2H-tetrazolium bromide) was added (30 μL/well). After 4h, the supernatant was removed, and the Formazan precipitates were dissolved in DMSO (100 μL/well). The 96-well plates were incubated for 20 min, and absorbance was measured at 570 nm using a plate reader. The results are expressed as a percentage ratio over control samples (100%) in which the cells were incubated with the same amount of DMSO but without compounds. Each value is the mean of three independent experiments run in six replicates.

[2] = tested on: Hep-G2; assay: MTT assay, antiproliferative activity; type: cell-based; details: Homo sapiens, HepG2, 48h
Procedure: as §1, §2

[3] = tested on: MDA-MB231; assay: MTT assay, antiproliferative activity; type: cell-based; details: Homo sapiens, MDA-MB-231, 48h
Procedure: as §1, §2

[4] = tested on: SK-BR3; assay: MTT assay, antiproliferative activity; type: cell-based; details: Homo sapiens, SK-BR-3, 48h
Procedure: as §1, §2

[5] = tested on: HeLa; assay: MTT assay, antiproliferative activity; type: cell-based; details: Homo sapiens, 10 µM, 48h, read-out: Mean Growth Percentage
Procedure: as §1, §2
(§3) Each IC50 value is the mean of three independent experiments run in duplicate.

[6] = tested on: MCF7; assay: MTT assay, antiproliferative activity; type: cell-based; details: Homo sapiens, 10 µM, 48h
Procedure: as §1, §2, §3

[7] = tested on: SKMEL28; assay: MTT assay, antiproliferative activity; type: cell-based; details: Homo sapiens, SK-MEL-28, 10 µM, 48h
Procedure: as §1, §2, §3

[8] = tested on: SKOV3; assay: MTT assay, antiproliferative activity; type: cell-based; details: Homo sapiens, SK-OV-3, 10 µM, 48h
Procedure: as §1, §2, §3

[9] = tested on: GM-6114; assay: MTT assay, cytotoxicity on normal fibroblasts; type: cell-based; details: human, 48 h, 10 µM
[10] = tested on: washed platelets; assay: Platelet aggregation (thrombin-induced, Born's method); type: cell-based; details: Homo sapiens, 0.1 U/mL thrombin, mean ± SD, read-out: IC50 Aggregation inhibition
Procedure: (§4) The antioxidant properties of acylhydrazones 10–13 and pyrazolyl amides 14–22 were tested by evaluating their inhibition of platelet aggregation and ROS production (Figure 3, Table S1). In fact, human platelets could represent a fast and low-cost biological model to screen compounds as anticancer, anti-inflammatory, and antiaggregating agents. Moreover, ROS production inhibition, related to human platelet aggregation, could provide a good indication of the anti-inflammatory and antioxidant properties of the newly synthesized compounds [47, 50, 51, 52]. N-acetylcysteine (NAC) and acetyl salicylic acid (ASA) were used as reference drugs for antioxidant and antiaggregant activities, respectively.
(§5) Freshly drawn venous blood from healthy volunteers from “Centro Trasfusionale” (IRCCS Policlinico San Martino, Genoa, Italy) was collected into a 130 mM aqueous trisodium citrate anticoagulant solution (9:1). The donors claimed to not have taken drugs known to interfere with platelet function during the two weeks prior to blood collection and gave their informed consent. Whole blood was centrifuged at 100× g for 20 min to afford platelet-rich plasma that was then spun at 1100× g for 15 min. The obtained pellet was washed once with a pH 5.2 ACD solution (75 mM trisodium citrate, 42 mM citric acid, and 136 mM glucose), centrifuged at 1100× g for 15 min, and then re-suspended in pH 7.4 Hepes buffer (145 mM NaCl, 5 mM KCl, 1 mM MgSO4, 10 mM glucose, and 10 mM HEPES).
Thrombin was purchased from Sigma-Aldrich/Merck Millipore. A DMSO solution of compounds 10–22 was diluted in saline immediately before each experiment and added to the washed platelets (3.0 × 10^8/mL) at 37 °C. After 3 min, 0.1 U/mL thrombin was added, and platelet aggregation was quantified according to Born’s method using a Bio-Data Aggregometer (Bio-Data Corporation, Horsham, PA, USA). The IC50 values were calculated as detailed above.

[11] = tested on: washed platelets; assay: ROS assay in platelets (DCFH-DA, thrombin-stimulated); type: cell-based, human; details: Homo sapiens, Platelet, 0.1 U/mL thrombin, mean ± SD, read-out: IC50 ROS production inhibition
Procedure: as §4, §5
2′,7′-Dichlorofluorescein diacetate (DCFH-DA) and thrombin were purchased from Sigma-Aldrich/Merck Millipore. DMSO solutions of 10–22 were diluted in saline immediately before each experiment. ROS production was quantified by DCFH-DA, a ROS-sensitive probe that yields, upon oxidation, the fluorescent adduct DCF that is trapped inside the cells. Briefly, washed platelets (1.0 × 10^8/mL), pre-incubated with saline solutions of 10–22 for 15 min at 37 °C, were stimulated by 0.1 U/mL thrombin. Incubation was stopped by cooling samples in an ice bath, and then samples were immediately analyzed in a Merck Millipore Bioscience Guava easyCyte flow cytometer (Merk Millipore, Burlington, MA, USA). The reported IC50 values represent the molar concentration of the compounds able to inhibit 50% of the maximal aggregation induced by the agonist and are calculated as the percentage inhibition of the maximal aggregation measured in the presence of the agent compared with the measure in a control sample containing saline, carried out under the same conditions. The IC50 values were extrapolated from nonlinear regression analysis of concentration–response curves (three points) using MS Excel software (Microsoft 365 suite). Each IC50 value is the mean of six independent experiments.

Structure (SMILES) | activity at 10 µM [1] | Mean growth percentage at 10 µM [2] | Mean growth percentage at 10 µM [3] | Mean growth percentage at 10 µM [4] | activity at 10 µM [5] | mean growth percentage (cell growth remaining vs control) at 10 µM [6] | Mean growth percentage at 10 µM [7] | Mean growth percentage at 10 µM [8] | Mean Growth Percentage [9] | IC50 [10] | IC50 [11] | melting point
COc1ccc(/C=N/NC(=O)c2c(Nc3ccccc3)nn(C)c2N)cc1OC [12b, (E)-5-amino-N′-(3,4-dimethoxybenzylidene)-1-methyl-3-(phenylamino)-1H-pyrazole-4-carbohydrazide] | 95.3% | 92.7% | 91.7% | 94.2% | 92.8% | 101% | 73.3% | 98.6% | 99.78% | 187 ± 16 µM | 106 ± 9 µM | 104 to 106 °C
COc1ccc(/C=N/NC(=O)c2c(Nc3ccccc3)nn(CC(O)c3ccccc3)c2N)cc1OC (stereo not drawn) [13b, (E)-5-amino-N′-(3,4-dimethoxybenzylidene)-1-(2-hydroxy-2-phenylethyl)-3-(phenylamino)-1H-pyrazole-4-carbohydrazide] | 104% | 106% | 92.1% | 92.2% | 98.8% | 101% | 95.7% | 114% | 106.86% | 909 ± 87 µM | 433 ± 32 µM | 158 to 159 °C
COc1ccc(/C=N/NC(=O)c2c(Nc3ccccc3)nn(CC(O)c3ccccc3)c2N)cc1Oc1ccccc1 (stereo not drawn) [13c, (E)-5-amino-1-(2-hydroxy-2-phenylethyl)-N′-(4-methoxy-3-phenoxybenzylidene)-3-(phenylamino)-1H-pyrazole-4-carbohydrazide] | 94.4% | 125% | 104% | 87.5% | 97.9% | 99.8% | 104% | 129% | 99.14% | 313 ± 29 µM | 209 ± 15 µM | 144 to 145 °C
CCOC(=O)c1c(NC(=O)c2ccc(OC)cc2)n[nH]c1Nc1ccccc1 [compound 15, Ethyl 3-(4-methoxybenzamido)-5-(phenylamino)-1H-pyrazole-4-carboxylate] | 67.9% | 85.5% | 130% | 99.8% | 105% | 65.9% | 71.7% | 88.4% | 68.40% | 250 ± 19 µM | 323 ± 14 µM | 155 to 157 °C
CCOC(=O)c1c(NC(=O)c2ccc(OC)c(OC)c2)n[nH]c1Nc1ccccc1 [compound 16, Ethyl 3-(3,4-dimethoxybenzamido)-5-(phenylamino)-1H-pyrazole-4-carboxylate] | 52.6% | 49.1% | 96% | 82.5% | 57.6% | 62.4% | 54% | 66.9% | 53.68% | 292 ± 28 µM | 310 ± 24 µM | 143 to 145 °C
CCOC(=O)c1c(NC(=O)c2ccc(Cl)cc2)nn(C)c1Nc1ccccc1 [compound 18, Ethyl 3-(4-chlorobenzamido)-1-methyl-5-(phenylamino)-1H-pyrazole-4-carboxylate] | 69.6% | 78.5% | 141% | 80.9% | 91.5% | 63.5% | 68.4% | 96.9% | 72.99% | 268 ± 25 µM | 273 ± 17 µM | 158 to 161 °C
CCOC(=O)c1c(NC(=O)c2ccc(OC)cc2)nn(C)c1Nc1ccccc1 [compound 19, Ethyl 3-(4-Methoxybenzamido)-1-methyl-5-(phenylamino)-1H-pyrazole-4-carboxylate] | 92.9% | 105% | 136% | 103% | 124% | 95.2% | 85.2% | 97.3% | 66.69% | 294 ± 26 µM | 293 ± 18 µM | 143 to 145 °C
